Measured values taken from patent US20250255792A1, “Methods of Using a Small Molecule Chemical Compound to Reduce the Appearance of Rhytids and Wrinkles” (BirchBioMed Inc., priority 2022, published 2025).
Entries after “also recorded” stand apart in the source; their conditions may differ.

How the values were obtained:
[1] = target: T1, aryl hydrocarbon receptor (AhR) (Homo sapiens, UniProt P35869); details: cited from earlier work
T1 sequence (P35869 11-848): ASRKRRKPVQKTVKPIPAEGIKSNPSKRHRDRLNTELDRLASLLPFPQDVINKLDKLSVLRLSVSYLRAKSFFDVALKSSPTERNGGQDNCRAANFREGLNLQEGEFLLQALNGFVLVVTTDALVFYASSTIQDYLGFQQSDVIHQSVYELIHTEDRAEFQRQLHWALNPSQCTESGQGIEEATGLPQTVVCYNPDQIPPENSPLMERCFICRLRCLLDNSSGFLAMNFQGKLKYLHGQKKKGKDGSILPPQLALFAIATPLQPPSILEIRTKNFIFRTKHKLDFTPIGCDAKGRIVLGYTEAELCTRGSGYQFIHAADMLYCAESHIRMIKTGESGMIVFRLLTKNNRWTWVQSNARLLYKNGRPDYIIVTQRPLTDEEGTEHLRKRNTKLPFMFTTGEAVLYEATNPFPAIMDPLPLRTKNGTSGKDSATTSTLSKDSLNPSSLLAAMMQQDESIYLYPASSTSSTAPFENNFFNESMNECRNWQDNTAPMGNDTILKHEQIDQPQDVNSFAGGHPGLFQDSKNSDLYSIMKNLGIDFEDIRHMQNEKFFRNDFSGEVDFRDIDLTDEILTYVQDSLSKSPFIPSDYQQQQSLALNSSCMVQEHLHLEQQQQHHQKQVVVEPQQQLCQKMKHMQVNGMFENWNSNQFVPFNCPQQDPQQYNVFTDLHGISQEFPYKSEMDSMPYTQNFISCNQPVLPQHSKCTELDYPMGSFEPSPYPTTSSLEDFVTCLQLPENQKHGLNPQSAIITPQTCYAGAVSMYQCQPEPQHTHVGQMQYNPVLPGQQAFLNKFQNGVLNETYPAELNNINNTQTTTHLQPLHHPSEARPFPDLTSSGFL

[2] = tested on: UVB-induced wrinkle formation; details: animal model (Kim, 2022); cited from earlier work
fibronectin = details: dermal fibroblasts; cited from earlier work
collagen 1 = details: dermal fibroblasts; cited from earlier work
[3] = tested on: rhytids and wrinkles on the face; test: Topical use of 0.5% kynurenic acid cream on facial rhytids and wrinkles (self-reported, visual inspection); format: in vivo, human; details: person, approx. 3 mg per application
Source text: (§1) Initial dermatological effects can be followed by visual inspection of the site.
as §1

MMP-3 = details: dermal fibroblasts; cited from earlier work
MMP-1 = details: dermal fibroblasts; cited from earlier work
[4] = tested on: rabbit ear hypertrophic scarring model; details: topical application to skin tissue; cited from earlier work

Row | Molecule | AhR agonist / antagonist activity [1] | UVB-induced wrinkle formation [2] | fibronectin expression (fibronectin) | collagen 1 expression (collagen 1) | visibility of rhytids and wrinkles (user-reported) ([3]; topical cream 0.5% kynurenic acid by weight once a day, approx. 80 micrograms per square cm, after a 2-month period) | appearance and visibility of rhytids and wrinkles (subject-reported) ([3]; topical cream 0.5% kynurenic acid by weight twice daily, approx. 60 micrograms per square cm, approx. two-month period) | MMP-3 expression (MMP-3) | MMP-1 expression (MMP-1) | MMP-1 relative to controls [4] | collagen relative to controls [4]
1 | vitamin B12 | AhR antagonists | helped reduce; also recorded: ameliorated |  |  |  |  |  |  |  | 
2 | Nc1nc2ncc(CNc3ccc(C(=O)N[C@@H](CCC(=O)O)C(=O)O)cc3)nc2c(=O)[nH]1 [folic acid] | AhR antagonists | helped reduce; also recorded: ameliorated |  |  |  |  |  |  |  | 
3 | O=C(O)c1cc(=O)c2ccccc2[nH]1 [kynurenic acid] |  |  | downregulate | downregulate; also recorded: suppress collagen production | less visible and less noticeable | perceptible and noticeable reduction | increase expression; also recorded: upregulate | increase expression; also recorded: increase MMP production; also recorded: upregulate |  | 
4 | Nc1ccccc1C(=O)CC(N)C(=O)O (racemic) [kynurenine] | AhR agonists |  |  | suppress collagen production |  |  |  | increase MMP production | increased | decreased
